How the values were obtained:
[1] = biological target: T1, Fas-activated serine/threonine kinase (Homo sapiens, UniProt Q14296); assay: Inhibition of […] human FASTK (355 to 444 residues) extracted from Escherichia coli BL21 (DE3) by Malachite Green dye based assay
T1 sequence (Q14296 whole entry): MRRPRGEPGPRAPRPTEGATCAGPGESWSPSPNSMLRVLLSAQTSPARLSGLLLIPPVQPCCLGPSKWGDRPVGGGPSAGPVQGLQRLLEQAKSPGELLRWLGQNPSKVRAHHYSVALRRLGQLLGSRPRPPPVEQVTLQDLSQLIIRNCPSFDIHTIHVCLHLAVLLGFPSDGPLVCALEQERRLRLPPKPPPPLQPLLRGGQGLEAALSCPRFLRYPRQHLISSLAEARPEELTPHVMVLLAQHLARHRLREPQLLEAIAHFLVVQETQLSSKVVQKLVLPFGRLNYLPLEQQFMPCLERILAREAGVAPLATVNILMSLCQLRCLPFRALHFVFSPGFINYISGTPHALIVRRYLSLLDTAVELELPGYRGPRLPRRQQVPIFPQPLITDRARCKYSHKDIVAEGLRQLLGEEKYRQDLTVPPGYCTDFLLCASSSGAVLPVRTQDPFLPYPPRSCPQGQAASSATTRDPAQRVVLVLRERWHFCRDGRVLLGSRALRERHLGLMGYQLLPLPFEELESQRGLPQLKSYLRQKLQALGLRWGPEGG

MCF7 = assay: Antiproliferative activity against human MCF7 cells assessed as reduction in cell viability incubated for 48 hrs by MTT assay; assay type: functional, cell-based; details: MCF7, 48 h
[2] = biological target: Receptor tyrosine-protein kinase erbB-2 (Homo sapiens) (UniProt P04626); assay: Inhibition of human recombinant HER-2 at 10 uM relative to control
Receptor tyrosine-protein kinase erbB-2 (Homo sapiens), sequence (P04626 whole entry): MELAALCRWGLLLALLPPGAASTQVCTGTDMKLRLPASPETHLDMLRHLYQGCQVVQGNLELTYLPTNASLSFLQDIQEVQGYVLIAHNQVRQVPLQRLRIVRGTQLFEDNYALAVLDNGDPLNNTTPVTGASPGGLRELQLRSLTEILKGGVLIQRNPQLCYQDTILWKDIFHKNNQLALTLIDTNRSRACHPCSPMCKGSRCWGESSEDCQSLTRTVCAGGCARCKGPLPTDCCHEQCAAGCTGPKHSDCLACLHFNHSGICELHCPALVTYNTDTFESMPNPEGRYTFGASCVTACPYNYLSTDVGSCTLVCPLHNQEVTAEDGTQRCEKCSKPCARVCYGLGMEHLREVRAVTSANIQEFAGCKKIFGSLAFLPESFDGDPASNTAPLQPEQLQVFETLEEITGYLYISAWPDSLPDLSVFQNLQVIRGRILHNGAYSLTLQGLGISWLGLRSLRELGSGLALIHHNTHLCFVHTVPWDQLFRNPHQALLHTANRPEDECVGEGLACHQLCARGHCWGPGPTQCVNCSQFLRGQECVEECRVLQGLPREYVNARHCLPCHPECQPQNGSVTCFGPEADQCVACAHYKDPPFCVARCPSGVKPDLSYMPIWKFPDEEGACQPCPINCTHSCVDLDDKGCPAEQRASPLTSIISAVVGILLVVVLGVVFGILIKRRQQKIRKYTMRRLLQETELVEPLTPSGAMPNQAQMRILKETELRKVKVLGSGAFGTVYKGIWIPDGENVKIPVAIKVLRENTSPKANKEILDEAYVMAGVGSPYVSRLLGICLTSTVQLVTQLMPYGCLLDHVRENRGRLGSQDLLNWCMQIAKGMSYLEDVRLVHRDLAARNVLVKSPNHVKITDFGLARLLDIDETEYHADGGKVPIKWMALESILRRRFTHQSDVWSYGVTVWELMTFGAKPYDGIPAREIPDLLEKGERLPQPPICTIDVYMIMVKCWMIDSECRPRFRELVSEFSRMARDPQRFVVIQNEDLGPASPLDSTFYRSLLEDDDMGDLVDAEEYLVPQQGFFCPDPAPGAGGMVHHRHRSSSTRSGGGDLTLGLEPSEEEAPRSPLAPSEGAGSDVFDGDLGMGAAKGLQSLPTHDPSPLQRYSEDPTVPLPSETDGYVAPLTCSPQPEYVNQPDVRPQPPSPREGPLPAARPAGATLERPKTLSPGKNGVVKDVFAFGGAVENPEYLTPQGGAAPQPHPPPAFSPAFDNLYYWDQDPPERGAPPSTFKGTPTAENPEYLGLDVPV

NCI-H522 = assay: Antiproliferative activity against human NCI-H522 cells overexpressing EGFR/HER-2 assessed as inhibition of cell growth at 10 uM relative to control; assay type: functional
MDA-MB-468 = assay: Antiproliferative activity against human MDA-MB-468 cells overexpressing EGFR/HER-2 assessed as inhibition of cell growth at 10 uM relative to control; assay type: functional
[3] = biological target: Epidermal growth factor receptor (Homo sapiens) (UniProt P00533); assay: Inhibition of human recombinant EGFR at 10 uM relative to control
Epidermal growth factor receptor (Homo sapiens), sequence (P00533 whole entry): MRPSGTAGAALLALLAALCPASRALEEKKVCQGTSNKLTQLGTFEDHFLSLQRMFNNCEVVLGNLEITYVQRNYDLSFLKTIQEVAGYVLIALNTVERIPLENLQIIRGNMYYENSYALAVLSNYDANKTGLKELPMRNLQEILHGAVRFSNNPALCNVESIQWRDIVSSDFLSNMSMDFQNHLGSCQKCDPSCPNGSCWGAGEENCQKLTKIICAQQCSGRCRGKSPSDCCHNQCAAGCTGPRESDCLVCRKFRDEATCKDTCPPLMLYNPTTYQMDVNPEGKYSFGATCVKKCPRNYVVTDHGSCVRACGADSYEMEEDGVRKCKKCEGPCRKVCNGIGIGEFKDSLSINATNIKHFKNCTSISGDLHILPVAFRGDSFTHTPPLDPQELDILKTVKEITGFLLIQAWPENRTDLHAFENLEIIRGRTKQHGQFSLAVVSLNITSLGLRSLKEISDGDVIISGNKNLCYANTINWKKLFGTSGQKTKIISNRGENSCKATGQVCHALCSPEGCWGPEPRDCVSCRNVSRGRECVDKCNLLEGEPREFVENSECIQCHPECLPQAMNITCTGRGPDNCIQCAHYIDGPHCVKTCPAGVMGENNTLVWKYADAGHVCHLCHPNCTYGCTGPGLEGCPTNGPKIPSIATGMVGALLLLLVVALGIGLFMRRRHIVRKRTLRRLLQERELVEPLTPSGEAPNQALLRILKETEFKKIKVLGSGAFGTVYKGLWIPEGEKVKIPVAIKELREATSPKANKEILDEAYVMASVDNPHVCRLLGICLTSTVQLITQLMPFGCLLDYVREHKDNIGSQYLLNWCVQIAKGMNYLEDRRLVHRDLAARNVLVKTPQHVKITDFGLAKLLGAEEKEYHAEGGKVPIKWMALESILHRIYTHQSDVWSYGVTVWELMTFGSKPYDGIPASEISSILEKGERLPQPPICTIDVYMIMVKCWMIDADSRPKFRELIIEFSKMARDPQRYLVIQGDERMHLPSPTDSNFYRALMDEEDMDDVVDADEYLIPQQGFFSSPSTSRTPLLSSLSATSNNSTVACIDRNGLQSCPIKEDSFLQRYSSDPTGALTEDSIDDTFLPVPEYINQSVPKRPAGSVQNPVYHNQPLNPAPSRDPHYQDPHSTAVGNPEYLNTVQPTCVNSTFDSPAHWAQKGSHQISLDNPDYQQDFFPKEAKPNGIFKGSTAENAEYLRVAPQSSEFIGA

SK-OV-3 = assay: Antiproliferative activity against human SK-OV-3 cells overexpressing EGFR/HER-2 assessed as inhibition of cell growth at 10 uM relative to control; assay type: functional
HUVEC = assay: Antiproliferative activity against HUVEC cells assessed as reduction in cell viability at 10 uM by alamar blue reagent based assay relative to control; assay type: functional; details: Homo sapiens
Ehrlich = assay: Antitumor activity against mouse Ehrlich carcinoma cell implanted in Swiss albino mouse model assessed as tumour growth inhibition at 10 mg/kg, po administered consecutively for 8 days relative to control; assay type: functional; details: 192 h, time 8 day, read-out: TGI
[4] = biological target: Vascular endothelial growth factor receptor 2 (Homo sapiens) (UniProt P35968); assay: Inhibition of N-terminal GST-tagged human recombinant VEGFR2 extracted from Sf9 cells at 10 uM relative to control; assay type: cell-free
Vascular endothelial growth factor receptor 2 (Homo sapiens), sequence (P35968 whole entry): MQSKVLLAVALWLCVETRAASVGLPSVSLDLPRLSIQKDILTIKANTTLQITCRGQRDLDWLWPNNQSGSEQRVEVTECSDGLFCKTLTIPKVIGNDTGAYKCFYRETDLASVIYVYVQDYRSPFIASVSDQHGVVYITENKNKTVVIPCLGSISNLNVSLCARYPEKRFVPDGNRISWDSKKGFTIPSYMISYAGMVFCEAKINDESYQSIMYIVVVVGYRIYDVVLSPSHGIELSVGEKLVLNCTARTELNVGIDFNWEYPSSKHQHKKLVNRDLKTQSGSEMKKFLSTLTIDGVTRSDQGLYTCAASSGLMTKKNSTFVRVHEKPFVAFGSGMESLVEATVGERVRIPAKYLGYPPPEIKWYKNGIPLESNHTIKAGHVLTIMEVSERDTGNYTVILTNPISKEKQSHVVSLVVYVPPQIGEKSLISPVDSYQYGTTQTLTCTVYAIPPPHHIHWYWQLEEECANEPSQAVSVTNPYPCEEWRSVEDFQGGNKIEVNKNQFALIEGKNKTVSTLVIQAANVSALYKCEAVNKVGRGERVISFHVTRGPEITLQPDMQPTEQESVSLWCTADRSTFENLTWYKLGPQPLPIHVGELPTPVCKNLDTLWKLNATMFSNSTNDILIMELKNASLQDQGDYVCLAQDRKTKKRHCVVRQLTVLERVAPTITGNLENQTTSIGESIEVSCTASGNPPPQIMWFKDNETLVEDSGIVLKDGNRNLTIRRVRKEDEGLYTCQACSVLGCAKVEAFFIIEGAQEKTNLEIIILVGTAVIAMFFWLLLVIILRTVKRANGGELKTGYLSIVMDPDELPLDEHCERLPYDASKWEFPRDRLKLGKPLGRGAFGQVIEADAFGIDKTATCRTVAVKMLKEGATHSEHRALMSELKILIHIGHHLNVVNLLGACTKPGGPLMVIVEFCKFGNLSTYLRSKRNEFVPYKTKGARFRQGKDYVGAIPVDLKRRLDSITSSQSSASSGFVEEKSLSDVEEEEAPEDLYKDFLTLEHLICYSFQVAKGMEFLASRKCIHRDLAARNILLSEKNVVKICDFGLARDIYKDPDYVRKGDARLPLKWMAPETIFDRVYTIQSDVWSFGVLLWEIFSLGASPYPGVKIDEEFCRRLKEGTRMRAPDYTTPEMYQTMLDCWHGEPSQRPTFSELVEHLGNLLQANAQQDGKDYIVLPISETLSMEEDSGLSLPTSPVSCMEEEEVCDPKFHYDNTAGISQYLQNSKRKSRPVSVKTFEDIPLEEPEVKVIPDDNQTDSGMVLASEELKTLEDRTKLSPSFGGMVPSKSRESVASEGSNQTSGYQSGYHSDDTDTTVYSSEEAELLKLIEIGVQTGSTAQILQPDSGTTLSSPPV

inhibition [2] | inhibition [3] | Compound | inhibition at 10 µM (HUVEC) | also measured
84% | 93% | Fc1cccc(COc2ccc(Nc3ncnc4sc5c(c34)CCCC5)cc2Cl)c1 |  | inhibition at 10 µM (NCI-H522): 56%; inhibition at 10 µM (MDA-MB-468): 68.2%; inhibition at 10 µM (SK-OV-3): 80.6%
84% | 93% | Fc1cccc(COc2ccc(Nc3ncnc4sc5c(c34)CCCC5)cc2)c1 |  | 
84% | 93% | Fc1ccc(COc2ccc(Nc3ncnc4sc5c(c34)CCCC5)cc2Cl)cc1 |  | 
84% | 93% | Clc1cc(Nc2ncnc3sc4c(c23)CCCC4)ccc1OCc1ccccc1 |  | 
84% | 93% | c1ccc(COc2ccc(Nc3ncnc4sc5c(c34)CCCC5)cc2)cc1 |  | 

Second part, the molecule before the results:

Compound | inhibition [2] | inhibition [3] | inhibition at 10 µM (HUVEC) | also measured
O=C(/C=C/c1ccc(Cl)cc1)c1ccc(Nc2ncnc3sc4c(c23)CCCC4)cc1 |  |  |  | IC50 [1]: 0.17 µM; IC50 (MCF7): 6.52 µM
COc1cccc(NC(=O)Nc2ccc(Oc3ncnc4sc5c(c34)CCCC5)cc2)c1 |  |  | 79.2% | 
O=C(/C=C/c1ccccc1)c1ccc(Nc2ncnc3sc4c(c23)CCCC4)cc1 |  |  |  | IC50 [1]: 0.32 µM; IC50 (MCF7): 20.2 µM
O=C(Nc1ccccc1)Nc1ccc(Oc2ncnc3sc4c(c23)CCCC4)cc1 |  |  | 64.3% | 
Cc1ccc(NC(=O)Nc2ccc(Oc3ncnc4sc5c(c34)CCCC5)cc2)cc1Cl |  |  | 46% | inhibition in vivo at 10 mg/kg (Ehrlich): 82.7%
COc1ccc(/C=C/C(=O)c2ccc(Nc3ncnc4sc5c(c34)CCCC5)cc2)cc1OC |  |  |  | IC50 [1]: 0.15 µM; IC50 (MCF7): 8.2 µM
Cc1cccc(NC(=O)Nc2ccc(Oc3ncnc4sc5c(c34)CCCC5)cc2)c1 |  |  | 82% | inhibition in vivo at 10 mg/kg (Ehrlich): 86.4%
O=C(Nc1ccc(Cl)cc1)Nc1ccc(Oc2ncnc3sc4c(c23)CCCC4)cc1 |  |  |  | inhibition [4]: 46%

Reference: ChEMBL document CHEMBL6114993, “Thienopyrimidine: A promising scaffold in the development of kinase inhibitors with anticancer activities” (Bioorg Med Chem, 2025)
